The subject of test [1] is Adjuvant-Induced Arthritis (AIA). Put plainly: Adjuvant-induced arthritis (AIA), histology of hind joint sections from arthritic rats. It counts as in vivo. To be noted: rat AIA, injected i.d. early (day0, day2, day4) or late (day9, day11, day13). The source says:
An intradermal injection, at the base of the tail, with heat killed Mycobaterium tuberculosum in incomplete Feund's Adjuvans results in destructive arthritis within 14 days in susceptible DA or LEW inbred rat strains. AIA can also be induced with cell walls from other bacterial types in IFA, although the arthritogenicity varies. Increased synthesis of tumor necrosis factor a (TNF-a), interleukin 1 (IL-1) and IL-6 is detected as early as day four after adjuvant injection. The disease progresses rapidly over several weeks in what appears clinically to be a monophasic process.
BX-1 early: BX-1 injected i.d. at the time of disease induction (day0) and day2, day4 BX-1 late: BX-1 injected i.d. at first signs of arthritis, day9, day11, day13.
Samples are from both left and right hind limb of three rats per group of a representative experiment
Rat ankle slides were histologically evaluated according to five criteria (blind evaluation by DL Boyle et al., University of California in San Diego, (J. Immunol., January 2002; 168: 51-56.): • 1. Extra-articular inflammation • 2. Bone marrow inflammation (BM) • 3. Synovial inflammation • 4. Cartilage/bone erosion • 5. Proteoglycan damage

Test [2] has as its target T1, human 11β-HSD1 (Homo sapiens, UniProt P28845).
T1 construct: expressed in transfected cells; host or cells: HEK-293 cells, stably transfected; cell lysate
Put plainly: 11β-HSD1 reductase activity (conversion of radiolabelled cortisone to cortisol) in lysates of stably transfected HEK-293 cells. Format: biochemical. The following applies: 10 μM CBX, 100 nM cortisone substrate.

SMILES strings stand for the structures.

T1 sequence (P28845 whole entry): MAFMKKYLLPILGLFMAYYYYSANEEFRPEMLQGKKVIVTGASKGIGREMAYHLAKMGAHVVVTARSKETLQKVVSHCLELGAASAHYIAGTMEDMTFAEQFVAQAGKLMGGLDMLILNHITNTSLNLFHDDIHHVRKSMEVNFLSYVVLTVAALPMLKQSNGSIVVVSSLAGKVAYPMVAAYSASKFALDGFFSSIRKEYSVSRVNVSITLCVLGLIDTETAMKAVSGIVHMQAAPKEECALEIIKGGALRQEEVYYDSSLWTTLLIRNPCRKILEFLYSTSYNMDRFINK

As to `CC1(C)[C@@H](O)CC[C@]2(C)[C@H]3C(=O)C=C4[C@@H]5C[C@@](C)(C(=O)O)CC[C@]5(C)CC[C@@]4(C)[C@]3(C)CC[C@@H]12` [BX-1, 18-β-glycyrrhetinic acid], the “influence on the pathology of arthritis (T-cell and dendritic cell activation, systemic inflammation, bone marrow infiltration)” value in test [1] is recorded as “positively influence all arms of the pathology of arthritis”.
With `CC1(C)[C@@H](OC(=O)CCC(=O)O)CC[C@]2(C)[C@H]3C(=O)C=C4[C@@H]5C[C@@](C)(C(=O)O)CC[C@]5(C)CC[C@@]4(C)[C@]3(C)CC[C@@H]12` [CBX, carbenoxolone], the “11β-HSD1 % of control” value in test [2] is reported as 4.43 % of control.

(Values after US20100087413A1, “Prevention and treatment of inflammation-induced and/or immune-mediated bone loss” (priority 2003, published 2010).)
